Test results as given in publication PMC6290340, “Discovery of Antiamebic Compounds That Inhibit Cysteine Synthase From the Enteric Parasitic Protist Entamoeba histolytica by Screening of Microbial Secondary Metabolites” (Frontiers in Cellular and Infection Microbiology, 2018).
Read-outs that look alike come from different tables or passages of the source.

Tests used:
E. histolytica CS3 = E. histolytica CS3 (Entamoeba histolytica, UniProt Q401L7); assay: CS inhibitory activity, recombinant CS3; format: biochemical
Chain of E. histolytica CS3 (Q401L7 entry or part of it): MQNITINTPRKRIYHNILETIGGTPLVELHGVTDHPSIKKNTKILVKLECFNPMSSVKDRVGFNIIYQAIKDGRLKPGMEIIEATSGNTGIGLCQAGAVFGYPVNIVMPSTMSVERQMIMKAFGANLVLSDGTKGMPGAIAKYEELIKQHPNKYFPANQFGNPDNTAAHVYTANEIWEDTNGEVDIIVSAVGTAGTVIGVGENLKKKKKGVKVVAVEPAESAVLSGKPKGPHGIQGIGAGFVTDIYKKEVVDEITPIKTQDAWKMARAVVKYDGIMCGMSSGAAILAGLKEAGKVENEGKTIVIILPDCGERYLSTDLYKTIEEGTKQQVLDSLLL

[1] = system: E. histolytica trophozoites; assay: In vitro antiamebic activity (WST-1), L-cysteine-deprived or L-cysteine-supplemented BI-S-33 medium; format: cell-based, Entamoeba histolytica; conditions: Cys (–) medium, 2.5 mM pencolide
[2] = Cytotoxicity against MRC-5 cells (WST-8); format: cell-based, Human; conditions: human, MRC-5 fibroblast cells; 2 days
Protocol: (§1) Human fibroblast cell line, MRC-5, was used for cytotoxicity evaluation. MRC-5 cells were plated on 96-well flat bottom plates at a density of 1.5 × 10^4 cells/well in 100 μl of MEM medium each well (Life Technologies) containing 10% fetal bovine serum (Hana-nesco Bio, Tokyo, Japan) and 1% penicillin-streptomycin (Life Technologies) and incubated at 37°C with 5% CO2 for 2 days. Test compounds in 5 μl of 50% DMSO and 50% H2O and 100 μl of MEM medium were mixed and added to each well. After cultivation at 37°C with 5% CO2 for 2 days, cell density and morphological changes were observed under a microscope. After observation, 10 μl of WST-8 solution (Dojindo) was added to the cells and the plate was incubated at 37°C with 5% CO2 for 2 h. Then, absorbance at 450 nm was measured as above. Cytotoxicity against MRC-5 cells was measured in triplicate. ED50 values were calculated as previously described (Arita-Morioka et al., [2015]).

MRC-5 cells [3] = assay: Cytotoxicity against MRC-5 cells (WST-8); format: cell-based, Human; conditions: MRC-5 relative to E. histolytica in Cys (–)
Protocol: as §1

E. histolytica CS1 = E. histolytica CS1 (Entamoeba histolytica, UniProt O15570); assay: CS inhibitory activity, recombinant CS1; format: biochemical
Chain of E. histolytica CS1 (O15570 entry or part of it): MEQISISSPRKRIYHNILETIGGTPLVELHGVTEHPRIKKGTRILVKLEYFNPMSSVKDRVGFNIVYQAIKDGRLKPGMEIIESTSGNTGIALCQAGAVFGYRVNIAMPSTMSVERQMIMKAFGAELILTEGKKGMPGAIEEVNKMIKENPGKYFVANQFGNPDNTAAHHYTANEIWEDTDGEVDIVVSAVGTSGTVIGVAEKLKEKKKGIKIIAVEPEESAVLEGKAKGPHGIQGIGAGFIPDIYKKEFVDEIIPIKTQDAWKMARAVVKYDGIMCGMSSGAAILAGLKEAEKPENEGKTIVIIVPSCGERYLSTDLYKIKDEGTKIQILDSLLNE
Protocol: Pencolide (5.5 mg) was dissolved in 1 ml of 0.25 M L-cysteine aqueous solution (L-cysteine HCl salt in H2O) and left at room temperature for overnight. The reaction mixture was purified by Seppak ODS (Waters co., Massachusetts, USA) and the cysteine adducts were eluted with 30%MeCN-70%H2O containing 0.1%TFA. The obtained fraction was further purified by preparative HPLC (column, Senshupak Pegasil ODS SP100, 20 φ × 250 mm, Senshu Scientific Co. Ltd.; solvent, 0.1%TFA-MeCN-H2O gradient system, 10–50% MeCN per 0–30 min; flow rate, 7.0 ml/min; detection, UV at 210 nm). […] The methanol solution of the obtained adducts was used for measurement of the CS1 inhibitory activity.

[4] = format: physicochemical; conditions: 9 mM L-cysteine, 37°C, 2 days
Protocol: After mixing well with plate mixer for 3 min, the plate was incubated at 37°C axenically with Anaeropak (Mitsubishi Chemical, Tokyo, Japan) for 2 days. The reaction mixtures were evaluated by HPLC analysis (column, Senshupak Pegasil ODS SP100, 4.6 φ × 250 mm, Senshu Scientific Co. Ltd., Japan; solvent, MeCN-H2O gradient system, 10–90% MeCN per 0–30 min; flow rate, 1.0 ml/min; detection, UV at 210 nm) and LC-ESI-MS analysis (column, Capcellcore C18, 2.1 φ × 50 mm, Osaka soda, Japan; solvent, MeCN-H2O-0.1% HCO2H gradient system, 5–100% MeCN per 0–8 min, 100%MeCN per 8–10 min; flow rate, 0.4 ml/min; ESI-MS data was obtained by JEOL JMS-T100LP, JEOL, Japan).

[5] = system: E. histolytica trophozoites; assay: In vitro antiamebic activity (WST-1), L-cysteine-deprived or L-cysteine-supplemented BI-S-33 medium; format: cell-based, Entamoeba histolytica; conditions: for IC50: Entamoeba histolytica; for Anti-amebic activity Selectivity Cys(+)/Cys(–): ED50 Cys(+)/ED50 Cys(–), cysteine dependence index; for Anti-amebic activity ED50 Cys (+): L-cysteine (9 mM) supplemented BI-S-33 medium; for Anti-amebic activity ED50 Cys (+) / Anti-amebic activity ED50 Cys (–): 48 hrs; for Anti-amebic activity ED50 Cys (–): L-cysteine-deprived BI-S-33 medium
Protocol: Trophozoites were harvested in a logarithmic growth phase 3 or 4 days after inoculation of 1/30–1/12 volume of the seed culture. After the cultures were chilled on ice for 5 min, trophozoites were collected by centrifugation at 500 × g for 10 min at 4°C. The trophozoites were resuspended in BI-S-33 medium containing 1% (v/v) penicillin/streptomycin (Life Technologies, Grand Islands, NY, U.S.A.), with a final concentration of 5 × 10^4 cells/ml. […] The plates were incubated under anaerobic conditions with Anaeropak for 48 hrs. After incubation, the medium was removed and 90 μl of pre-warmed Opti-MEM I (Life Technologies) and 10 μl of WST-1 solution (Dojindo, Kumamoto, Japan) were added to each well. Optical absorbance at 450 nm was measured on a photospectrometer (SH-9000Lab, Corona Electric, Ibaraki, Japan). Metronidazole (Sigma-Aldrich, MO, USA) was used as positive control. Antiamebic assays were done in triplicate. […] The cysteine dependence of the antiamebic activities was calculated as ED 50Cys(+) /ED 50Cys(-) and expressed as “cysteine dependence index.”
Approximately 2 μl of the compound solution (1 mg/ml, in DMSO) of the Kitasato Natural Products Library or 10 μl of EtOH extracts of microbial culture broth extracts was added to each well of E. histolytica trophozoite-seeded 96-well microtiter plates (final concentrations, 10 μg/ml). Compounds showing more than 80% growth inhibition and having no cytotoxicity against MRC-5 cells were selected for further evaluation.

[6] = system: E. histolytica trophozoites; set-up: method as in Mori et al., 2015; conditions: ref Mori et al., 2015, cited from earlier work
MRC-5 cells [7] = system: MRC-5 cells; set-up: method as in Mori et al., 2015; conditions: strong cytotoxicity, times higher, ref Mori et al., 2015; cited from earlier work
EhCSs [8] = system: EhCSs; set-up: method as in Mori et al., 2015; conditions: previous enzymatic screening, ref Mori et al., 2015; read-out: IC50 value against CSs; cited from earlier work
EhCSs [9] = assay: EhCS inhibition, isotype not separated (both CSs / EhCS); format: biochemical, Entamoeba histolytica; conditions: cytochalasans and cerulenin at 100 μg/ml
Description: Expression and purification of recombinant E. histolytica CS1 and CS3, and measurement of inhibitory activity against both enzymes were described previously (Mori et al., [2015]).

[10] = read-out: CS inhibitory activity IC50 CS3 (converted)
[11] = read-out: CS inhibitory activity IC50 CS1 (converted)

Molecule	Stability in cysteine-supplemented water (HPLC) [4]	IC50 (E. histolytica CS3)	IC50 (E. histolytica CS1)	Anti-amebic activity Selectivity Cys(+)/Cys(–) [5]	Anti-amebic activity ED50 Cys (+) [5]	Anti-amebic activity ED50 Cys (–) [5]	also measured
C/C=C(\C(=O)O)N1C(=O)C=C(C)C1=O [Pencolide]	most of pencolide was changed to the cysteine adducts	–	–	–	–	–	IC50 (E. histolytica CS3; [10]): 217 ± 25 µM; Cell morphology under a light microscope [1]: apoptosis-like cell death; IC50 at 2 days [2]: 1900 µM; Selectivity MRC-5/Cys (–) (selectivity index) (MRC-5 cells [3]): 6.7; IC50 (E. histolytica CS1; [11]): 233 ± 19 µM; Selectivity Cys (+)/Cys (–) (cysteine dependence index) [5]: 7.6; IC50 ([5]; Cys (+) medium, read-out: Cytotoxicity IC50 Against Entamoeba histolytica in Cys (+)): 2140 µM; IC50 ([5]; Cys (–) medium, read-out: Cytotoxicity IC50 Against Entamoeba histolytica in Cys (–)): 283 ± 44 µM
CC(=O)c1c(C)c(/C(O)=C2\COc3cc(O)c(O)c(C(=O)O)c3C2=O)cc2c(=O)c3c(C(=O)O)c(O)c(O)cc3oc12 [xanthofulvin]	–	–	–	–	–	–	Antiamebic activity in vitro [6]: did not show the antiamebic activity
CC1=CC2C=C(C)C(C)C3C(CC(C)C)NC(=O)C23C(=O)C=CC(=O)C(O)CC1 (stereo not shown) [Aspochalasin B]	–	> 250 µM	> 250 µM	3	27 µg/mL	9.6 µg/mL	–
CCCCCCCCCc1cc(OC(=O)c2c(CCCCCCCCC)cc(O)cc2OC2OC(CO)C(O)C(O)C2O)cc(O)c1C(=O)O (stereo not shown) [exophillic acid]	–	–	–	–	–	–	Antiamebic activity in vitro [6]: did not show the antiamebic activity
deacetylkinamycin C	–	–	–	–	–	–	Cytotoxicity against MRC-5 cells relative to antiamebic/CS activity (MRC-5 cells [7]): > 10 times; IC50 (EhCSs [8]): ~20 µM; ED50 value against amebic trophozoites ([6]; previous study): ca. 20 μM
C/C=C/C/C=C/CCC(=O)[C@H]1O[C@H]1C(N)=O [Cerulenin, reference compound]	relatively stable	> 448 µM	> 448 µM	–	8.2 µg/mL	1.1 µg/mL	Inhibitory activity toward both CS1 and CS3 (in words) (EhCSs [9]): neither three cytochalasans nor cerulenin showed the inhibitory activity
CCC[C@H]1O[C@H](CC(=O)O)CC2=C1C(=O)c1c(O)cccc1C2=O [Deoxyfrenolicin]	–	–	–	2	3.9 µg/mL	1.7 µg/mL	IC50 (E. histolytica CS3; [10]): 75.7 µM; IC50 (E. histolytica CS1; [11]): 72.7 µM; Inhibitory activity toward both CS1 and CS3 (in words) (EhCSs [9]): mild inhibition
CC1=CC(C)CC=CC2C3OC3(C)C(C)C3C(Cc4c[nH]c5ccccc45)NC(=O)C23C(=O)C=CC(=O)C1 (stereo not shown) [Prochaetoglobosin III]	totally lost	> 195 µM	> 195 µM	17	44 µg/mL	2.6 µg/mL	–
C/C1=C\[C@@H](C)C/C=C/[C@H]2[C@@H]3O[C@]3(C)[C@@H](C)[C@H]3[C@H](Cc4c[nH]c5ccccc45)NC(=O)[C@]32C(=O)/C=C/C(=O)[C@@H]1O [Chaetoglobosin A]	totally lost	> 189 µM	> 189 µM	>50	>50 µg/mL	1.0 µg/mL	–
